The structures appear in SMILES notation.

Test in all cases: Antibacterial activity in vitro, agar diffusion method in Davis Mingioli medium
Holding throughout (format): cell-based

The subject of one assay is Providencia sp. DU48. To be noted: 100 mg/l aqueous solution in 9 mm wells, incubation 24 h at 37°C, read-out: zones d'inhibition (diamètre en mm). As for the experimental part:
(§1) L'activité antibactérienne des produits revendiqués a été déterminée par la méthode de diffusion en milieu de Davis Mingioli additionné de 1% d'agar. Les géloses utilisées sont coulées en boîtes de Petri à 48°C, après ensemencement à […] au moyen de la souche bactérienne test. Les inocula proviennent d'une pré-culture de 24 heures en bouillon de Davis Mingioli. Après durcissement des géloses, les solutions aqueuses des produits étudiés sont introduites dans des puits (9 mm) creusés dans le milieu à l'aide d'un emporte-pièce. Les zones d'inhibition observées (diamètre en mm) sont mesurées après incubation de 24 heures à 37°C.

The test system of a further assay is Escherichia Coli 078. Conditions: COLI078, 100 mg/l aqueous solution in 9 mm wells, incubation 24 h at 37°C, read-out: zones d'inhibition (diamètre en mm). As for the experimental part:
as §1

Assay [1] relates to Salmonella typhimurium MZ11. To be noted: Salmonella enterica, 100 mg/l aqueous solution in 9 mm wells, incubation 24 h at 37°C, read-out: zones d'inhibition (diamètre en mm). As for the experimental part:
as §1

Assay [2] concerns Enterobacter cloacae 1321E. To be noted: 100 mg/l aqueous solution in 9 mm wells, incubation 24 h at 37°C, read-out: zones d'inhibition (diamètre en mm). On the procedure:
as §1

Take `C=CC(N)(CC(=C)CC(N)C(=O)O)C(=O)O` (stereo not drawn) [exemple 4, Acide 2,6-diamino 2-éthényl 4-méthylène heptanedioïque]: the zone of inhibition at 100 µg/mL with Providencia sp. DU48 was found to be 29 mm; with Escherichia Coli 078, 17.5 mm; in assay [1], 31 mm; in assay [2], 26 mm.

For `C=C(CC(N)C(=O)O)CC(N)(CC)C(=O)O` (stereo not drawn) [exemple 7, Acide 2,6-diamino 2-éthyl 4-méthylène heptanedioïque], the zone of inhibition at 100 µg/mL was found to be 28 mm in the assay on Providencia sp. DU48, 18 mm in the assay with Escherichia Coli 078, 34 mm in assay [1] and 29 mm in assay [2].

Regarding `C#CC(N)(CC(=C)CC(NCc1ccccc1)C(=O)O)C(=O)O` (stereo not drawn) [exemple 10, Acide 2-amino 2-éthynyl 4-méthylène 6-[(phénylméthyl)amino] heptanedioïque], the zone of inhibition at 100 µg/mL in assay [1] came to 19 mm.

The values above are taken from EP0394118B1, “2,6-Aminoheptanedioic acid unsaturated derivatives, process for their preparation and their use as medicaments” (ROUSSEL-UCLAF, priority 1989, dated 1990).
